Molecular target: T1, UCHL1 (Homo sapiens, UniProt P09936)
T1 construct: made in house; host or cells: HEK293T
T1 sequence (P09936 1-223): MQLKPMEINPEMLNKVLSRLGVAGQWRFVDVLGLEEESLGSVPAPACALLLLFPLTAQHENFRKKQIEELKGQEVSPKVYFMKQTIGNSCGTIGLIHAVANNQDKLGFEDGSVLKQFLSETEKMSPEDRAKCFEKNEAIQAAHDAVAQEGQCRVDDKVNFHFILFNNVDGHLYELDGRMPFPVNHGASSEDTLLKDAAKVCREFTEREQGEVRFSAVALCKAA
Test: UCHL1 biochemical IC50 assay (fluorescence polarisation)
Conditions: 30 min enzyme/compound pre-incubation at room temp, read after 2 hr incubation, read-out: Activity range (UCHL1 biochemical IC50 assay)
Method in brief: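 FLAG-UCHL1 purified from transfected HEK293T cells was preincubated 30 min at room temperature with compound (8 points, 100–0.03 μM final) in Tris pH 7.5 buffer with Tween 20, BSA and beta-mercaptoethanol. Reaction started with 50 nM TAMRA-peptide–ubiquitin isopeptide substrate; fluorescence polarisation (ex 540/em 590 nm) read at once and after 2 h.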

SMILES | IC50 [µM]
N#CN1CC[C@H](C(=O)Nc2cc(-c3ccnc4nccn34)ccn2)C1 [Example 252, (S)-1-cyano-N-(4-(imidazo[1,2-a]pyrimidin-5-yl)pyridin-2-yl)pyrrolidine-3-carboxamide] | 1 to 10
N#CN1CC[C@H](C(=O)Nc2cc(-c3cccc4nccn34)ccn2)C1 [Example 253, (S)-1-cyano-N-(4-(imidazo[1,2-a]pyridin-5-yl)pyridin-2-yl)pyrrolidine-3-carboxamide] | < 1
N#CN1CC[C@H](C(=O)Nc2cc(-c3cn4ccnc4cn3)ccn2)C1 [Example 254, (S)-1-cyano-N-(4-(imidazo[1,2-a]pyrazin-6-yl)pyridin-2-yl)pyrrolidine-3-carboxamide] | < 1
N#CN1CC[C@H](C(=O)Nc2cc(-c3cnc4nccn4c3)ccn2)C1 [Example 255, (S)-1-cyano-N-(4-(imidazo[1,2-a]pyrimidin-6-yl)pyridin-2-yl)pyrrolidine-3-carboxamide] | < 1
N#CN1CC[C@H](C(=O)Nc2cc3cccnc3cn2)C1 [Example 256, (S)-1-cyano-N-(1,7-naphthyridin-6-yl)pyrrolidine-3-carboxamide] | 1 to 10
N#CN1CC[C@H](C(=O)Nc2cc(-c3cccc(Cl)c3)ncn2)C1 [Example 257, (S)-N-(6-(3-chlorophenyl)pyrimidin-4-yl)-1-cyanopyrrolidine-3-carboxamide] | 1 to 10
N#CN1CC[C@H](C(=O)Nc2cc(-c3ccnc(N)c3)ccn2)C1 [Example 258, (S)-N-(2′-amino-[4,4′-bipyridin]-2-yl)-1-cyanopyrrolidine-3-carboxamide] | 1 to 10
CNc1cc(-c2ccnc(NC(=O)[C@H]3CCN(C#N)C3)c2)ccn1 [Example 259, (S)-1-cyano-N-(2′-(methylamino)-[4,4′-bipyridin]-2-yl)pyrrolidine-3-carboxamide] | 1 to 10
CNC(=O)c1ccc2cnc(NC(=O)[C@H]3CCN(C#N)C3)cc2c1 [Example 260, (S)-3-(1-cyanopyrrolidine-3-carboxamido)-N-methylisoquinoline-6-carboxamide] | 1 to 10
Cc1noc(C)c1-c1ccc2cnc(NC(=O)[C@H]3CCN(C#N)C3)cc2c1 [Example 261, (S)-1-cyano-N-(6-(3,5-dimethylisoxazol-4-yl)isoquinolin-3-yl)pyrrolidine-3-carboxamide] | < 1
N#CN1CC[C@H](C(=O)Nc2cc(-c3cccc4[nH]ncc34)ccn2)C1 [Example 262, (S)—N-(4-(1H-indazol-4-yl)pyridin-2-yl)-1-cyanopyrrolidine-3-carboxamide] | < 1
C#Cc1ccc2cnc(NC(=O)[C@H]3CCN(C#N)C3)cc2c1 [Example 263, (S)-1-cyano-N-(6-ethynylisoquinolin-3-yl)pyrrolidine-3-carboxamide] | 1 to 10
C#Cc1ccc2cnc(NC(=O)[C@H]3CCN(C#N)[C@H]3C)cc2c1 [Example 264, (2S,3S)-1-cyano-N-(6-ethynylisoquinolin-3-yl)-2-methylpyrrolidine-3-carboxamide] | 1 to 10
N#CN1CC[C@H](C(=O)Nc2cc3cc(C(N)=O)ccc3cn2)C1 [Example 265, (S)-3-(1-cyanopyrrolidine-3-carboxamido)isoquinoline-6-carboxamide] | 1 to 10
C[C@H]1[C@@H](C(=O)Nc2cc3cc(-c4cn[nH]c4)ccc3cn2)CCN1C#N [Example 266, (2S,3S)—N-(6-(1H-pyrazol-4-yl)isoquinolin-3-yl)-1-cyano-2-methylpyrrolidine-3-carboxamide] | < 1
N#CN1CC[C@H](C(=O)Nc2cc3ccccn3n2)C1 [Example 267, (S)-1-cyano-N-(pyrazolo[1,5-a]pyridin-2-yl)pyrrolidine-3-carboxamide] | 1 to 10
N#CN1CC[C@H](C(=O)Nc2cc(-c3ccccc3)ccn2)C1 [Example 268, (S)-1-cyano-N-(4-phenylpyridin-2-yl)pyrrolidine-3-carboxamide] | 1 to 10
N#CN1CC[C@H](C(=O)Nc2cn3cc(C(F)(F)F)ccc3n2)C1 [Example 270, (S)-1-cyano-N-(6-(trifluoromethyl)imidazo[1,2-a]pyridin-2-yl)pyrrolidine-3-carboxamide] | < 1
Cc1cccc(-c2cc(NC(=O)[C@H]3CCN(C#N)C3)nn2C)c1 [Example 271, (S)-1-cyano-N-(1-methyl-5-(m-tolyl)-1H-pyrazol-3-yl)pyrrolidine-3-carboxamide] | < 1
N#CN1CC[C@H](C(=O)Nc2cnc3ccccc3c2)C1 [Example 272, (S)-1-cyano-N-(quinolin-3-yl)pyrrolidine-3-carboxamide] | 1 to 10

SMILES | IC50 [µM]
CC(C)(C)c1ccnc(NC(=O)[C@H]2CCN(C#N)C2)c1 [Example 273, (S)-N-(4-(tert-butyl)pyridin-2-yl)-1-cyanopyrrolidine-3-carboxamide] | 1 to 10
N#CN1CC[C@H](C(=O)Nc2cc(-c3ccncc3)ncn2)C1 [Example 274, (S)-1-cyano-N-(6-(pyridin-4-yl)pyrimidin-4-yl)pyrrolidine-3-carboxamide] | 1 to 10
N#CN1CC[C@H](C(=O)Nc2cc(-c3ccccc3)cnn2)C1 [Example 275, (S)-1-cyano-N-(5-phenylpyridazin-3-yl)pyrrolidine-3-carboxamide] | 1 to 10
N#CN1CC[C@H](C(=O)Nc2cn3cc(-c4cnco4)ccc3n2)C1 [Example 276, (S)-1-cyano-N-(6-(oxazol-5-yl)imidazo[1 ,2-a]pyridin-2-yl)pyrrolidine-3-carboxamide] | < 1
CC(C)S(=O)(=O)N1CCc2nc(NC(=O)[C@H]3CCN(C#N)C3)sc2CC1 [Example 277, (S)-1-cyano-N-(6-(isopropylsulfonyl)-5,6,7,8-tetrahydro-4H-thiazolo[4,5-d]azepin-2-yl)pyrrolidine-3-carboxamide] | < 1
COCCn1cc(-c2ccc(-n3cnc(NC(=O)[C@H]4CCN(C#N)C4)c3)cc2)cn1 [Example 278, (S)-1-cyano-N-(1-(4-(1-(2-methoxyethyl)-1H-pyrazol-4-yl)phenyl)-1H-imidazol-4-yl)pyrrolidine-3-carboxamide] | < 1
N#CN1CC2CC2(C(=O)Nc2ncc(-c3ccccc3)s2)C1 (stereo not shown) [Example 279, 3-cyano-N-(5-phenylthiazol-2-yl)-3-azabicyclo[3.1.0]hexane-1-carboxamide] | 1 to 10
N#CN1CC(C(=O)Nc2ncc(-c3ccccc3)s2)C2CC21 (stereo not shown) [Example 280, 2-cyano-N-(5-phenylthiazol-2-yl)-2-azabicyclo[3.1.0]hexane-4-carboxamide] | 1 to 10
N#CN1C[C@@H](C(F)(F)F)[C@H](C(=O)Nc2ncc(-c3ccccc3)s2)C1 [Example 281, (3S, 4S)-1-cyano-N-(5-phenylthiazol-2-yl)-4-(trifluoromethyl)pyrrolidine-3-carboxamide] | < 1
COC1(C(=O)Nc2ncc(-c3ccccc3)s2)CCN(C#N)C1 (stereo not shown) [Example 284, 1-cyano-3-methoxy-N-(5-phenylthiazol-2-yl)pyrrolidine-3-carboxamide] | < 1
Cc1noc(C)c1-c1cnc2nc(NC(=O)[C@H]3CCN(C#N)C3)sc2c1 [Example 285, (S)-1-cyano-N-(6-(3,5-dimethylisoxazol-4-yl)thiazolo[4,5-b]pyridin-2-yl)pyrrolidine-3-carboxamide] | 1 to 10
Cc1noc(C)c1-c1ccc2nc(NC(=O)[C@H]3CCN(C#N)C3)sc2n1 [Example 286, (S)-1-cyano-N-(5-(3,5-dimethylisoxazol-4-yl)thiazolo[5,4-b]pyridin-2-yl)pyrrolidine-3-carboxamide] | < 1
Cc1cccc(C)c1-c1ccc2nc(NC(=O)[C@H]3CCN(C#N)C3)sc2c1 [Example 287, (S)-1-cyano-N-(6-(2,6-dimethylphenyl)benzo[d]thiazol-2-yl)pyrrolidine-3-carboxamide] | < 1
Cc1nn(C)cc1-c1ccc2nc(NC(=O)[C@H]3CCN(C#N)C3)sc2c1 [Example 288, (S)-1-cyano-N-(6-(1,3-dimethyl-1H-pyrazol-4-yl)benzo[d]thiazol-2-yl)pyrrolidine-3-carboxamide] | < 1
N#CN1CC[C@H](C(=O)Nc2cc3cc(-c4cn[nH]c4C(F)(F)F)ccc3cn2)C1 [Example 289, (S)-1-cyano-N-(6-(5-(trifluoromethyl)-1H-pyrazol-4-yl)isoquinolin-3-yl)pyrrolidine-3-carboxamide] | < 1
Cc1oncc1-c1cccc(-c2ccnc(NC(=O)[C@H]3CCN(C#N)C3)c2)c1 [Example 290, (S)-1-cyano-N-(4-(3-(5-methylisoxazol-4-yl)phenyl)pyridin-2-yl)pyrrolidine-3-carboxamide] | < 1
N#CN1CC[C@H](C(=O)Nc2cc(-c3cn[nH]c3)ccn2)C1 [Example 291, (S)-N-(4-(1H-pyrazol-4-yl)pyridin-2-yl)-1-cyanopyrrolidine-3-carboxamide] | 1 to 10
N#CN1CC[C@H](C(=O)Nc2nc3ccc(-c4cn[nH]c4)cc3s2)C1 [Example 292, (S)-N-(6-(1H-pyrazol-4-yl)benzo[d]thiazol-2-yl)-1-cyanopyrrolidine-3-carboxamide] | 1 to 10
N#CN1CC[C@H](C(=O)Nc2cn(-c3ccc(-c4cn[nH]c4)cc3)cn2)C1 [Example 294, (S)-N-(1-(4-(1H-pyrazol-4-yl)phenyl)-1H-imidazol-4-yl)-1-cyanopyrrolidine-3-carboxamide] | < 1
Cc1[nH]ncc1-c1ccnc(NC(=O)[C@H]2CCN(C#N)C2)c1 [Example 295, (S)-1-cyano-N-(4-(5-methyl-1H-pyrazol-4-yl)pyridin-2-yl)pyrrolidine-3-carboxamide] | 1 to 10

— patent US11472798B2 (Mission Therapeutics Limited, priority 2014, dated 2022)
